Reference: BigSolDB 2.1

O=C(CN1C(=O)S/C(=C\c2ccc(Cl)cc2)C1=O)N1CCN(CC(O)(Cn2cncn2)c2cc(F)ccc2F)CC1 (stereo not given)
solubility (mole fraction)
Details | 293.15 K | 298.15 K | 303.15 K | 308.15 K | 313.15 K
in ethanol | 0.000161 | 0.0002 | 0.000254 | 0.000312 | 0.000377
in n-hexane | 2.34e-06 | 3.14e-06 | 4.1e-06 | 5.16e-06 | 6.28e-06
in n-octanol | 0.00047 | 0.000578 | 0.000723 | 0.000882 | 0.00115
